What was measured:
[1] = orally or parenterally; cited from earlier work
[2] = tested on: cGMP in the rat cerebellum; assay: Effect on the cGMP levels in the rat cerebellum; assay type: in vivo; settings: i.v., 1 hour after administration, saline = 100
Description: The cGMP is measured 1 hour after administration.

animals (Rat, Mouse) = assay: Acute toxicity, symptoms observed in the animals (rat, mouse); assay type: in vivo
Description: Observation period: 14 days
(+) from 500 mg/kg upwards, the animals show sedation symptoms.

Sacch. cerevisiae D4 = assay: Genetic conversion; settings: 1000-100-10 mcg/plate
Acute toxicity, mouse = settings: in vivo, observation 14 days, read-out: DL50
Source text: (§1) |Observation period: 14 days

[3] = tested on: salmonella thyphimurium, 5 different strains; assay: Mutagenesis (Salmonella, 5 different strains); settings: 1000-100-10 mcg/plate
Source text: Mutagenesis (salmonella thyphimurium, 5 different strains): 1000-100-10 mcg/plate: negative.

[4] = tested on: Plasmatic Prolactin Levels (PRL); assay: Effect of compound (V) administered intravenously to the rat on plasmatic prolactin levels (PRL); assay type: in vivo
Source text: 4. Effect of Compound (V) Administered Intravenously to the Rat, on the Plasmatic Prolactin Levels (PRL)

Schizosacch. pombe P1 = assay: Generic mutation; settings: 1000-100-10 mcg/plate
[5] = Sub-acute toxicity, 4 weeks; assay type: in vivo; settings: daily oral and intra-peritoneal 10, 20 and 40 mg/kg/day
Description: After daily oral and intra-peritoneal administration of 10,20 and 40 mg/kg/day of compound (V) for 4 weeks, no effect is observed on mortality, body weight, alimentation, hematological or urinary data, autoptic examination, weight or histology of the organs.

EEG in Rabbits = assay type: in vivo
Description: At doses of 100 and 50 mg/kg i.v., electrical activity becomes evidently synchronous 10 minutes after administration, and lasts for about 3 hours. […] After 4 hours, behaviour and EEG become normal.

[6] = tested on: Spinal Medulla of the Cat; assay: Effect on the spinal medulla of the cat; assay type: in vivo; settings: 3-30 mg/kg i.v.
Acute toxicity, rat = settings: in vivo, observation 14 days, read-out: DL50
Source text: as §1

[7] = line marked (+), route not given

## NCCCC(=O)O [GABA, gamma-amino butyric acid]
[1]
  crossing of the blood-brain barrier (GABA): does not cross the blood-brain barrier

## O=C(O)CCCNCCC(=O)O [Compound (V), N-β-carboxyethyl-γ-aminobutyric acid]
[2]; 1 mg/kg
  cGMP: Relative levels: 95 ± 8
[2]; 10 mg/kg
  cGMP: Relative levels: 68 ± 4
[2]; 30 mg/kg
  cGMP: Relative levels: 60 ± 5
[2]; 100 mg/kg
  cGMP: Relative levels: 74 ± 6
Animals (Rat, Mouse); in vivo, po, 20160 min
  dose from which the animals show sedation symptoms: ≥ 500 mg/kg
Animals (Rat, Mouse); intra-peritoneal (++)
  symptoms before death: ataxia, lack of reaction to stimuli, and dyspnea
Sacch. cerevisiae D4
  Genetic conversion: doubtful
  mutagenic activity for the gene ADE 2: not for the gene ADE 2
Sacch. cerevisiae D4; only in the presence of a microsomial activator
  mutagenic activity for the gene TPR 5: a slight increase in mutagenic activity
Acute toxicity, mouse; ip, intra-peritoneal
  LD50 at 336 h: 783 mg/kg
Acute toxicity, mouse; [7]
  LD50 at 336 h: 1000 mg/kg
Acute toxicity, mouse; oral
  LD50 at 336 h: 1000 mg/kg
[3]
  Mutagenesis: negative
[4]; 100 mg/kg i.v., 0 min
  PRL levels: 4 ng/mL
[4]; 100 mg/kg i.v., 15 min
  PRL levels: 18 ± 5 ng/mL
[4]; 100 mg/kg i.v., 30 min
  PRL levels: 4 ± 6 ng/mL
[4]; 100 mg/kg i.v., 60 min
  PRL levels: 4 ng/mL
[4]; 200 mg/kg i.v., 0 min
  PRL levels: 4 ng/mL
[4]; 200 mg/kg i.v., 15 min
  PRL levels: 49 ± 10 ng/mL
[4]; 200 mg/kg i.v., 30 min
  PRL levels: 5 ± 1 ng/mL
[4]; 200 mg/kg i.v., 60 min
  PRL levels: 4 ng/mL
[4]; 300 mg/kg i.v., 0 min
  PRL levels: 4 ng/mL
[4]; 300 mg/kg i.v., 15 min
  PRL levels: 78 ± 5 ng/mL
[4]; 300 mg/kg i.v., 30 min
  PRL levels: 21 ± 8 ng/mL
[4]; 300 mg/kg i.v., 60 min
  PRL levels: 12 ng/mL
[4]; intravenous, short intervals after administration
  effect on the prolactin release: dose-dependent effect on the prolactin release
Schizosacch. pombe P1
  Generic mutation: negative
[5]
  effect on alimentation: no effect
  effect on autoptic examination: no effect
  effect on body weight: no effect
  effect on hematological or urinary data: no effect
  effect on mortality: no effect
  effect on weight or histology of the organs: no effect
EEG in Rabbits; 100 and 50 mg/kg i.v.
  basal activity, cortical graph: replaced by a slow continuous activity prevalent on the cortical graph
  behaviour (sedation): sedated, but responds to stimuli
  desynchronisation of cortical activity by vibro-stimulation and pain stimuli: do not desynchronise cortical activity
  duration of synchronous electrical activity: about 3 hours
  thalamus and hippocampus activity at 4-5 Hz: replaced by an irregular graph and many slow waves
  time after administration at which electrical activity becomes synchronous: 10 min
  time after which behaviour and EEG become normal: 4 h
EEG in Rabbits; conclusion from EEG in rabbits, i.v.
  sedative activity: demonstrates sedative activity
EEG in Rabbits; rabbit, in vivo, iv
  overcoming of the hematoencephalic barrier: overcomes the hematoencephalic barrier
[6]
  activity on the gamma-mononeuron: dose-dependent reduction
  dorsal root potentials: dose-dependent reduction
  mono and polysynaptic reflexes of the ventral root: dose-dependent reduction
Acute toxicity, rat; ip, intra-peritoneal
  LD50 at 336 h: 877 mg/kg
Acute toxicity, rat; [7]
  LD50 at 336 h: 1000 mg/kg
Acute toxicity, rat; oral
  LD50 at 336 h: 1000 mg/kg

Source: patent US4563478A, “Method of tranquilizing” (priority 1981, dated 1986)
